In one assay the test system is CD46. The assay is described as follows: Cycloheximide flow cytometric chase assay of CD46 protein degradation. It counts as cell-based. The settings on record: primary human T cells. A general note: A flow cytometer gives signals particle by particle.
The next assay deals with transgenic GFP reporter. Nature of the assay: crRNA-guided knockdown of a transgenic GFP reporter in primary human T cells. The assay is classed as cell-based. Particulars: lentivirally-integrated.

Take `C[C@@H]1C[C@@H]([C@H](O)CC2CC(=O)NC(=O)C2)C(=O)[C@@H](C)C1` [CHX, cycloheximide]: the “CD46 expression after CHX addition” value with CD46 is on record as “did not reach half-maximal expression prior to T cell apoptosis”.

B1: RfxCas13d: Ruminococcus flavefaciens Cas13d, SEQ ID NO: 1 (protein)
chain: MIEKKKSFAKGMGVKSTLVSGSKVYMTTFAEGSDARLEKIVEGDSIRSVNEGEAFSAEMADKNAGYKIGNAKFSHPKGYAVVANNPLYTGPVQQDMLGLKETLEKRYFGESADGNDNICIQVIHNILDIEKILAEYITNAAYAVNNISGLDKDIIGFGKFSTVYTYDEFKDPEHHRAAFNNNDKLINAIKAQYDEFDNFLDNPRLGYFGQAFFSKEGRNYIINYGNECYDILALLSGLRHWVVHNNEEESRISRTWLYNLDKNLDNEYISTLNYLYDRITNELTNSFSKNSAANVNYIAETLGINPAEFAEQYFRFSIMKEQKNLGFNITKLREVMLDRKDMSEIRKNHKVFDSIRTKVYTMMDFVIYRYYIEEDAKVAAANKSLPDNEKSLSEKDIFVINLRGSFNDDQKDALYYDEANRIWRKLENIMHNIKEFRGNKTREYKKKDAPRLPRILPAGRDVSAFSKLMYALTMFLDGKEINDLLTTLINKFDNIQSFLKVMPLIGVNAKFVEEYAFFKDSAKIADELRLIKSFARMGEPIADARRAMYIDAIRILGTNLSYDELKALADTFSLDENGNKLKKGKHGMRNFIINNVISNKRFHYLIRYGDPAHLHEIAKNEAVVKFVLGRIADIQKKQGQNGKNQIDRYYETCIGKDKGKSVSEKVDALTKIITGMNYDQFDKKRSVIEDTGRENAEREKFKKIISLYLTVIYHILKNIVNINARYVIGFHCVERDAQLYKEKGYDINLKKLEEKGFSSVTKLCAGIDETAPDKRKDVEKEMAERAKESIDSLESANPKLYANYIKYSDEKKAEEFTRQINREKAKTALNAYLRNTKWNVIIREDLLRIDNKTCTLFRNKAVHLEVARYVHAYINDIAEVNSYFQLYHYIMQRIIMNERYEKSSGKVSEYFDAVNDEKKYNDRLLKLLCVPFGYCIPRFKNLSIEALFDRNEAAKFDKEKKKVSGNS
B1: the “functional activity: knockdown of GFP reporter” value in the assay on transgenic GFP reporter was “confirmed the functional activity”.

For the origin of these results see patent publication US20260053921A1, “A MULTIPLEXED RNA REGULATION PLATFORM FOR PRIMARY IMMUNE CELL ENGINEERING” (The Board of Trustees of the Leland Stanford Junior …, priority 2022, published 2026).
